Experimental data taken from US8017727B2, “Conjugates of membrane translocating agents and pharmaceutically active agents” (Merrion Research III Limited, priority 1999, dated 2011).
Converted amounts (≈) assume the structure as drawn. Where two headings read alike, the source gives them in different places. Non-standard residues stand in square brackets, D forms with d. Residues, ends and D or L forms follow the SMILES beside them.

Assays:
Caco-2 cell monolayers = assay: Permeability of tritiated kappa peptide conjugates through differentiated Caco-2 cell monolayers; format: in vitro ADME, human; details: n=5
Experimental: Highest transport values were obtained in the first 30 min followed by a 2-4 fold decrease at 60 min. The significance of these findings is unclear. The data may be indicative of dual binding/uptake events occurring through i) a kappa receptor specific mechanism and ii) direct membrane interaction through lipid interaction of the membrane permeable peptide.

[1] = Systemic 3H bioavailability of kappa peptide conjugates, conscious rat model (plasma); format: in vivo, Wistar rats; details: intraduodenal (ID), 100 μCi; for bioavailability: rat, plasma, potency corrected, read-out: Absolute 3H bioavailability
Experimental: The possible enhancing effects of ELAN094 and ELAN207 MTLPs (SEQ ID NOs 2 and 60) on intestinal absorption of the kappa peptide were examined in a conscious rat model.
The study was non-randomised, parallel group design. Wistar rats within the 250-350 g weight range were used. All animals were fasted for a period of 16 h prior to study initiation. Water was available at all times.
Intravenous injection of 10 μCi of ^3H-kappa peptide-Kaffiralin-1 (plain kappa peptide) (tail vein injection).
Intraduodenal instillation of 100 μCi of ^3H-kappa peptide-Elan094 (Analysed). The Elan094 ligand contains a membrane translocating sequence.
Intraduodenal instillation of 100 μCi of ^3H-kappa peptide-Elan207 (Analysed). The Elan207 ligand contains a membrane translocating sequence.
Intraduodenal instillation of 100 μCi of ^3H-kappa peptide-Kaffiralin-1.
The plasma (100-250 μl) was made up to 1 ml with BTS-450 (an organic tissue solubiliser) and incubated for 1 hour. Ten ml of Scintillation fluid was added and the radioactivity was measured.
The study was a non-randomised, parallel group biostudy designed to evaluate the systemic bioavailability of tritium labelled kappa peptide conjugates after intra-duodenal instillation in the conscious rat model. Each rat only received one treatment and the plasma samples were analysed for tritium content. The calculation of AUClast, Amax, tmax, Volume of Distribution (V d) and Clearance was based on base line corrected data. The absolute bioavailability was calculated using potency corrected data.

[2] = 3H tissue distribution of kappa peptide conjugates, conscious rat model; format: in vivo, Wistar rats; details: ID, 100 μCi, potency corrected
Experimental: The tissue was weighed and a representative sample, (ca 0.1 g), was removed to a scintillation vial. The tissue was solubilzed with 1 ml of BTS-450 (an organic tissue solubliser). Ten ml of scintillation fluid was added and the radioactivity was measured. The radioactivity was expressed as dpm/initial weight of tissue.

[3] = Solubility of ZElan094 (physical characteristics); format: physicochemical; details: water
Caco-2 monolayers [4] = assay: Transport of reporter molecule 3H-fMLP across Caco-2 monolayers; format: cell-based, human; details: for % inhibition 3H-fMLP transport: flux measured over 2 h
Experimental: The effect of the MTLPs ZElan094, ZElan178 and ZElan187 (SEQ ID NOS: 2, 7 and 16) and of the targeting peptide ZElan022 (U.S. patent application Ser. Nos. 09/079,819, 09/079,723 AND 09/079,678, AND PCT A[…]/US98/10088, PUBLISHED AS WO 98/51325) on the transport of the dipeptide ^14C-gly-sar and of the reporter molecule ^3H-fMLP across Caco-2 monolayers was determined. The Caco-2 monolayers were grown on Transwell-Snapwells. Cell viability was determined by measuring TEER of the Caco-2 monolayers during each experiment. No significant drop in TEER was measured. Cell permeability was determined by measuring mannitol flux across the Caco-2 monolayers during each experiment. No increase in mannitol flux was measured in the presence of the MTLP ZElan094.
The flux of the dipeptide ^14C-gly-sar and of the reporter molecule ^3H-fMLP across the Caco-2 monolayers in the absence and in the presence of the MTLPs ZElan094, ZElan178 and ZElan187 (SEQ ID NOS: 2, 7 and 16) and of the targeting peptide ZElan022 (U.S. patent application Ser. Nos. 09/079,819, 09/079,723 AND 09/079,678), AND PCT A[…]/US98/10088, PUBLISHED AS WO 98/51325 was measured over 2 h, and reduction in the permeability coefficient was determined in the presence of cold substrates.
Caco-2 monolayers were grown and tested for viability as in Example 11. Transport of ^3H-fMLP across Caco-2 monolyers was measured in the presence from 0 to 200 μg/ml of the MTLP ZElan094.

Caco-2 monolayers [5] = assay: Transport of dipeptide 14C-gly-sar across Caco-2 monolayers; format: cell-based, human; set-up: key to % inhibition 14C-gly-sar transport: NS: no significant difference between experimental (+MTLP) and control cells (−MTLP) in the transport of radiolabeled drug; details: flux measured over 2 h
Experimental: The effect of the MTLPs ZElan094, ZElan178 and ZElan187 (SEQ ID NOS: 2, 7 and 16) and of the targeting peptide ZElan022 (U.S. patent application Ser. Nos. 09/079,819, 09/079,723 AND 09/079,678, AND PCT APPLICATION PCT/US98/10088, PUBLISHED AS WO 98/51325) on the transport of the dipeptide ^14C-gly-sar and of the reporter molecule ^3H-fMLP across Caco-2 monolayers was determined. The Caco-2 monolayers were grown on Transwell-Snapwells. Cell viability was determined by measuring TEER of the Caco-2 monolayers during each experiment. No significant drop in TEER was measured. Cell permeability was determined by measuring mannitol flux across the Caco-2 monolayers during each experiment. No increase in mannitol flux was measured in the presence of the MTLP ZElan094.
The flux of the dipeptide ^14C-gly-sar and of the reporter molecule ^3H-fMLP across the Caco-2 monolayers in the absence and in the presence of the MTLPs ZElan094, ZElan178 and ZElan187 (SEQ ID NOS: 2, 7 and 16) and of the targeting peptide ZElan022 (U.S. patent application Ser. Nos. 09/079,819, 09/079,723 AND 09/079,678), AND PCT APPLICATION PCT/US98/10088, PUBLISHED AS WO 98/51325 was measured over 2 h, and reduction in the permeability coefficient was determined in the presence of cold substrates.

Caco-2 cells = assay: Delivery of DNA from MTLP coated liposomes into Caco-2 cells (β-galactosidase expression); format: cell-based, human; details: versus lipofectamine+DNA and lipofectamine+DNA+protamine control liposomes
Experimental: DNA delivery into Caco-2 cells from liposomes and from MTLP coated liposomes was calculated as β-galactosidase expression per mg of total protein in the cell supernatant. β-galactosidase expression was determined using the Boehringer Mannheim chemiluminescence kit. Protein was determined using the Pierce Micro bichinconate (BCA) protein assay.
Caco-2 cells were plated at 1×10^5 cells/well in 1 ml of culture media and incubated at 37° C. in 5% CO2 overnight. The cells were washed twice in 0.5 ml of optiMEM. ZElan094, 204N or 204 (SEQ ID NOS: 2, 23, 24) (Solution 4, Example 9) were each added to triplicate wells (250 μl/well) of the washed cells and incubated for 4 h at 37° C. After 4 h, 250 μl of optiMEM containing 2× fetal calf serum was added and the cells were incubated for an additional 20 h at 37° C. At 24 h post-transfection, the cells were lysed with Boehringer Mannheim Lysis Buffer. The lysate was centrifuged for 2 min at 14,000 rpm in an Eppendorf Centrifiguge and the supernatant was collected.

CC[C@@H](C)[C@@H](NC(=O)[C@@H](Cc1ccccc1)NC(=O)[C@@H](Cc1ccccc1)NC(=O)[C@@H](CCCCN)NC(=O)[C@H]1CCCN1C(=O)[C@@H](C)NC(=O)[C@@H](C)NC(=O)[C@@H](CC(C)C)NC(=O)[C@@H](CC(C)C)NC(=O)[C@H](NC(=O)[C@H]1CCCN1C(=O)[C@@H](CC(C)C)NC(=O)[C@@H](CC(C)C)NC(=O)[C@H](NC(=O)[C@@H](C)NC(=O)[C@@H](C)NC(=O)[C@@H](C)NC(=O)[C@@H](CCCCN)NC(=O)[C@H](N)CCCCN)C(C)C)C(C)C)C(=O)N[C@H](CCCNC(=N)N)C(N)=O [3H-Kappa peptide-Elan 207] (H-[dK][dK][dA][dA][dA][dV][dL][dL][dP][dV][dL][dL][dA][dA][dP][dK][dF][dF][dI][dR]-NH2; N-terminus and C-terminus assumed)
permeability compared to the kappa peptide control (Caco-2 cell monolayers): No significant increase | 3H AUClast ([1]; (Repeat) group): 249021.32±37503.78 dpm/ml·h | 3H Amax (maximum radioactivity) ([1]; (Repeat) group): 201464.40±44854.19 dpm/ml | fold increase in absolute 3H bioavailability versus kappa peptide without ligand ([1]; (Repeat) group): approx. 2 fold | 3H AUClast ([1]; Elan207 = original group): 162743.70±13549.10 dpm/ml·h | 3H Amax (maximum radioactivity) ([1]; Elan207 = original group): 100041.17±6274.57 dpm/ml | fold increase in absolute 3H bioavailability versus kappa peptide without ligand ([1]; listed as Elan207 MTLP): > 1.5 fold | bioavailability ([1]; (Repeat) group): 16.6 ± 2.5% | bioavailability ([1]; Elan207 = original group): 11.5 ± 0.96% | Catheter, % of administered dose [2]: 0.14 ± 0.09% | GI Tissue, % of administered dose [2]: 4.08 ± 2.47% | GI Washing, % of administered dose [2]: 9.60 ± 16.65% | GI contents, % of administered dose [2]: 26.34 ± 17.00% | Liver, % of administered dose [2]: 0.47 ± 0.20% | Total GI (% recovery from GI tissue, GI contents & GI wash) [2]: 40.03 ± 23.23% | Kidney, % of administered dose ([2]; t=6 h): 0.17 ± 0.07% | Plasma, % of administered dose ([2]; t=6 h): 0.10 ± 0.01% | Total Recovery, % of administered dose ([2]; t=6 h): 40.91 ± 23.32% | Plasma, % of administered dose ([2]; t=6 h, listed as 3H-Kappa peptide Elan207): 0.10±0.01%

CC(C)C[C@H](NC(=O)[C@H](CC(C)C)NC(=O)[C@@H](NC(=O)[C@@H]1CCCN1C(=O)[C@H](CC(C)C)NC(=O)[C@H](CC(C)C)NC(=O)[C@@H](NC(=O)[C@H](C)NC(=O)[C@H](C)NC(=O)[C@H](C)NC(=O)[C@H](CCCCN)NC(=O)[C@H](CCCCN)NC(=O)[C@@H](N)CCCCNS(=O)(=O)c1cccc2c(N(C)C)cccc12)C(C)C)C(C)C)C(=O)N[C@@H](C)C(=O)N[C@@H](C)C(=O)N1CCC[C@H]1C(N)=O [ZElan094]
solubility [3]: 1000 µg/mL (≈ 545 µM) | % inhibition 3H-fMLP transport (Caco-2 monolayers [4]; listed as 094): 77.2% | % inhibition 3H-fMLP transport (Caco-2 monolayers [4]; listed as ZElan 094): inhibited transport | inhibition of 3H-fMLP transport (Caco-2 monolayers [4]; range 0 to 200 μg/ml): inhibited | % inhibition 14C-gly-sar transport (Caco-2 monolayers [5]): NS | inhibition of 14C-gly-sar transport (Caco-2 monolayers [5]): did not inhibit transport

H-K(ε-dansyl)AAVLLPVLLAAKKKRKA-NH2 ({K(dansyl)}-AAVLLPVLLAAKKKRKA-NH2) [ZElan204N]
DNA delivery into and expression within Caco-2 cells (Caco-2 cells): most effective
